Experimental data as given in patent US20100002929A1, “Image-based methods for measuring global nuclear patterns as epigenetic markers of cell differentiation” (The Charles Stark Draper Laboratory, Inc., priority 2004, published 2010).

Key:
hESC = test: Chromatin mobility by time-lapse confocal microscopy of GFP-H2B transfected hESC; format: cell-based, human; settings: hESC transfected with GFP-H2B; data not shown
Procedure: Chromatin movement was further analyzed in hESC transfected with the fluorescent histone GFP-H2B (FIG. 4). Single confocal slices at 0.4 μm spacing (FIG. 4A) show density variations, including low-density voids (arrow in FIG. 4A, 0.4 μm). The movement of cell-specific bright chromatin densities was analyzed by overlaying images at 0, 5 and 10 min, assigned to the blue, green and red channels respectively (FIGS. 4B-F) and by vector analysis where movement of bright spots was traced with a yellow line at 1 min intervals and red arrows were placed at the last position of the spot (FIG. 4G). Different kinds of nuclear movement were detected including internal mixing of chromatin, indicated by movement of bright chromatin domains without envelope deformation (pluripotent hESC, FIG. 4B), deformation of the envelope and chromatin (pluripotent hESC, FIG. 4C), and multidirectional streaming of chromatin (2 day differentiated hESC, FIG. 4D). Long-range coordination of chromatin movement was infrequent in hESC and prevalent, albeit at slower speeds, in differentiated cells. An increase in coherence length was most noticeable in 5-week differentiated hESC (FIG. 4E). In contrast, endothelial cells show small amplitude, sub-em tethered stochastic movement (FIG. 4F) as reported previously for somatic cells (Marshall, Straight et al. 1997). […]

HDAC1 = HDAC1 immunostaining (confocal microscopy) in HeLa cells; settings: FIG. 15
Oct4 promoter = settings: combined TSA and 5Aza 2′ deoxycytidine treatment of TE; cited from earlier work

SMILES | effect on chromatin mobility (hESC) | HDAC1 staining (HDAC1) | Oct4 expression (Oct4 promoter) | Oct4 promoter methylation (Oct4 promoter)
COC(=O)Nc1nc2ccc(C(=O)c3cccs3)cc2[nH]1 [nocodazole] | no effect on chromatin mobility | – | – | –
C=C1[C@@H](C)[C@H]2[C@H](Cc3ccccc3)NC(=O)[C@]23[C@H](OC(C)=O)/C=C/[C@@](C)(O)C(=O)[C@@H](C)C/C=C/[C@H]3[C@@H]1O [cytochalasin D] | slight acceleration of chromatin mobility | – | – | –
CC(/C=C/C(=O)NO)=C\[C@@H](C)C(=O)c1ccc(N(C)C)cc1 [TSA] | – | complete absence of HDAC1 staining | induces Oct4 expression | hypomethylates the Oct4 promoter
Nc1ncn([C@H]2C[C@H](O)[C@@H](CO)O2)c(=O)n1 [5Aza 2′ deoxycytidine] | – | – | induces Oct4 expression | hypomethylates the Oct4 promoter
